Data set [1] has as its system mice. Nature of the data set: PGE2-induced diarrhea in mice. The data set is classed as in vivo.
Data set [2] relates to mice. Nature of the data set: animal or person. To be noted: Mus musculus, iv, read-out: Analgesia, tail flick test in mice, i.v., ED50. (Thermal pain tests record how soon the animal reacts.)
The subject of data set [3] is mice. The following applies: mouse, in vivo, po.
Data set [4] deals with mice. The following applies: mouse, in vivo.

In the case of `CN(C)C(=O)C(CCN1CCC(O)(c2ccc(Cl)cc2)CC1)(c1ccccc1)c1ccccc1` [Loperamide, loperamide], the ED50 was 0.41 mg/kg with mice [1] (Mus musculus, iv, read-out: ED50 Value (mg/kg) i.v.) and more than 0.562 mg/kg with mice [2]. In addition, the “PGE2-diarrhea, mice, ED50 i.v.” value with mice [1] (mouse, in vivo, iv) is on record as “ED50 i.v. = 0.41 μM”. For the same compound, the “PGE2-diarrhea, mice, ED50 p.o.” value in the data set on mice [1] (mouse, in vivo, po) is recorded as “ED50 p.o. = 9.34 μM”. The “Carbon passage, mice, ED50 p.o.” value with mice [3] is “ED50 p.o. = ˜15 μM”. For the same compound, in the data set on mice [4], the “action on the central nervous system (in words)” value is listed as “always has a measurable action”. Further, the “tail flick test in mice, i.v.: toxic side effects from” value in the data set on mice [4] (iv) was “toxic from 0.464”.
